System: Lepeophtheirus salmonis (sea lice)
Assay: Sea lice bioassay, 24 hours exposure to test compound
Type: in vivo
Details: predominantly pre-adult and adult stage, generally chemical resistant strain

With Emamectin the “Adult Females (EC50)” value (adult female sea lice) was 65 ppb and the “Adult Males (EC50)” value (adult male sea lice) was 202 ppb.

— patent US20150223463A1, “SPIROCYCLIC ISOXAZOLINE DERIVATIVES FOR TREATMENT OF SEA LICE” (Zoetis LLC, priority 2012, published 2015)
